Data set [1] is described as follows: Stability in intestinal lumen (decay rate). In kind it is in vitro ADME. The text has this: (§1) The physiologically based pharmacokinetic/pharmacodynamic model of the present invention contains a series of compartments that describe the time course of a nonsteroidal anti-inflammatory prodrug, its active metabolites and nitric oxide release in intestine, liver, kidneys, blood/plasma and heart after prodrug administration. The time course of the prodrug, its active metabolites and nitric oxide release can be simulated using a series of in vitro and in silico inputs. The stability of each component in the gastrointestinal lumen is estimated using data collected from artificial gastric and intestinal juice. Intestinal metabolism is estimated using intestinal microsomes and absorption rate is estimated using permeability data collected from a cell monolayer such as Caco-2. Hepatic elimination is estimated using liver microsomes and stability in plasma is calculated using degradation of each component in the media. Plasma protein binding can either be measured using a standardized in vitro method or it can be estimated using an in silico method. The distribution of each component in various parts of the body is estimated using an in silico method. The rate of nitric oxide release is estimated using an in vitro endothelial cell model. The time course of prodrug, its active metabolites and nitric oxide can be simulated in human and animal using this physiologically based pharmacokinetic/pharmacodynamic model provided that the corresponding in vitro and in silico data are used as inputs.
(§2) Representative in vitro tests or in silico estimates include: (a) pKa estimation or measurement; (b) Log P measurement or in silico estimation; (c) Solubility in various physiological fluids; (d) Permeability. Caco-2 and/or NOVOKIN's proprietary animal and human cell lines can be used to obtain this parameter; (e) Metabolic rate in the intestine and liver. Human or animal intestinal microsomes, S9 fraction, and cytosol can be used for this purpose. Human or animal hepatocytes, liver microsomes, S9 fraction, and cytosol can also be used; (f) Hydrolysis in human or animal plasma; (g) Serum or plasma protein binding. It can be measured in vitro or estimated in silico; (h) The rate of NO release; (i) Existing pharmacokinetic and pharmacodynamic data of NSAID or a biocompatible agent; (j) Existing NO release rate of known diazeniumdiolate if applicable; (k) Stability in gastric and intestinal environment; and (l) In silico volume of distribution estimation.

Data set [2] relates to male Wistar rats. The experiment in a line: Urine N-acetylglucosaminidase to creatinine ratio (distal tubule toxicity). The class given is in vivo, rat. To be noted: oral gavage, urine collected for 6 hours. As to the method:
(§3) Table 1 is a summary of the protocol for a study which was conducted in male Wistar rats weighing 275-300 grams. The animals were allowed to acclimatize for at least five days prior to the commencement of the study. The study protocol was approved by the local animal ethics committee.
(§4) All test animals, housed in metabolic cages, had urine collected over wet ice for 6 hours after dosing. Aliquots of the urine from each animal were collected to determine creatinine concentration. The remainder of the urine was centrifuged at 1000 g for 10 minutes. The supernatant was collected and mixed with analytical grade ethylene glycol at a rate of 0.4 mL ethylene glycol per 1 mL urine supernatant. The ethylene glycol/urine mixture was stored at −80° C. until analysis.

Data set [3] in a line: Hydrolysis in rat liver microsomes. The class given is in vitro ADME. The note with it: for liver microsomal activity: model input.
From the text: as §1, §2
(§5) Whenever in vitro estimate is attainable, the in vitro results will be used, for example, plasma protein binding. Methods reported by Bowalgaha & Miners (2001), Martignoni et al. (2006), Tong et al. (2001) and Thulesen et al. (1999) were used for in vitro and in vivo scale-up for clearance in the intestine, absorption rate constant and hepatic clearance. The simulation begins with no material in all compartments except for the initial bolus in one compartment (typically the stomach compartment). The simulation then estimates the changing distribution of the material with time.
(Liver microsomes are a subcellular fraction often used to study metabolism.)

A short description of data set [4]: Stability in gastric environment (gastric decay rate). The class given is in vitro ADME.
From the text: as §1, §2

Data set [5] is described as follows: Hydrolysis in human liver microsomes. The note with it: for liver microsomal activity: model input. The class given is in vitro ADME.
From the text: as §1, with “The” for “The physiologically based pharmacokinetic/pharmacodynamic model of the present invention contains a series of compartments that describe the time course of a nonsteroidal anti-inflammatory prodrug, its active metabolites and nitric oxide release in intestine, liver, kidneys, blood/plasma and heart after prodrug administration. The”
The selection of in vitro tests is designed to provide parameters for the above mentioned model. The use of an inappropriate test would result in wrong predictions.
as §2
The simulation begins with no material in all compartments except for the initial bolus in one compartment (typically the stomach compartment). The simulation then estimates the changing distribution of the material with time.

A short description of data set [6]: Hydrolysis in rat plasma. The class given is in vitro ADME. The note with it: Rat.
From the text: as §1, §2

The test system of data set [7] is male Wistar rats. The experiment in a line: Urine alanine aminopeptidase to creatinine ratio (proximal tubular kidney damage). The class given is in vivo, rat. The note with it: for AAP/Cr (urine alanine aminopeptidase to creatinine), Mean: oral gavage, urine collected for 6 hours.
From the text: Myocardial infarction and ischemic events in high risk patients led one of the most popular COX-2 inhibitors to its demise (Bresalier et al., 2005). Non-selective NSAIDS may also cause similar problems due to their ability to inhibit COX-2. […] Adenosine diphosphate (ADP) generation is an indicator of myocardial infarction which has no connection with the arachidonic acid cascade (Borna et al., 2005). […] Long term NSAID use has been linked to kidney damage and hypertension (Zafirovska et al., 1993). […] This was associated with an increase in the urine the ratio of alanine-amino-peptidase (AAP) and creatinine.
as §3, §4

Data set [8] is described as follows: Hydrolysis in rat intestinal microsomes. In kind it is in vitro ADME. To be noted: for intestinal microsomal activity: model input.
From the text: as §1, §2, §5

Take `COc1ccc2cc([C@H](C)C(=O)OCCCCO[N+](=O)[O-])ccc2c1` [AZD 3582]: the “intestinal lumen decay rate constant” value in data set [1] (Human) and in data set [1] (Rat) was 0 min⁻¹ in each case. In data set [2], the “Urine NAG/Cr values, Mean” value was determined as 27.439. In addition, the liver microsomal activity in data set [3] is on record as 1029 mL/min/organ; in data set [5], 118566 mL/min/organ. In addition, the “gastric decay rate constant” value in data set [4] (Human) and in data set [4] (Rat) was 0 /mint each time. Further, in data set [6], the “plasma decay rate constant” value was 1.0 min⁻¹. Moreover, in data set [7], the “Urine AAP/creatinine ratio change (in words)” value was “did cause an increase”. In data set [7], the “AAP/Cr (urine alanine aminopeptidase to creatinine), Mean” value is 403.400. In data set [8], this compound registered an intestinal microsomal activity of 0.09 mL/min/organ.

As for `COc1ccc2cc(C(C)C(=O)OCON=[N+]([O-])N3CCCC3)ccc2c1` (stereo not drawn) [PYRO-NO-NAP, pyrrolidino-diazeniumdiolate-naproxen], the “intestinal lumen decay rate constant” value in data set [1] (Human) and in data set [1] (Rat) was 0.025 min⁻¹ throughout. Besides, the “Urine NAG/Cr values, Mean” value in data set [2] was 21.515. Also, the “liver molar percent conversion to Naproxen” value was 40% in data set [3] and 72% in data set [5]. The liver microsomal activity in data set [3] came to 1920 mL/min/organ; in data set [5] it was 567000 mL/min/organ. Further, the “gastric decay rate constant” value in data set [4] (Human) and in data set [4] (Rat) was 0 /mint in each case. In addition, the “plasma decay rate constant” value in data set [6] was 1.4 min⁻¹. In addition, the “AAP/Cr (urine alanine aminopeptidase to creatinine), Mean” value in data set [7] stood at 195.569. In addition, in data set [8], the “intestinal molar percent conversion to Naproxen” value came out at 10%. In data set [8], this compound showed an intestinal microsomal activity of 1 mL/min/organ.

Source of the values: patent US20080288176A1 (priority 2005, published 2008).
